Data as given in patent publication US20030235904A1, “Bacterial parts washer, composition and method of use” (Osprey Biotechnics, Inc., priority 2002, published 2003).

What was measured:
[1] = tested on: Pseudomonas putida NRRL-B-18118; assay: Shelf-life of the pseudomonad stored with NEODOL 91-6 (plate counts); assay type: cell-based
Experimental: The Pseudomonas putida NRRL-B-18118 was stabilized in a liquid according to the method described in U.S. Pat. No. 5,980,747 to Vandenbergh. Briefly, sodium nitrate was mixed with water in an amount of 0.26 gm per 100 gm (mL) of water. This produced a 0.26% solution by weight. To this solution, Pseudomonas putida NRRL-B-18118 was added in an amount to provide a final concentration of 1.4×10^8 CFU/mL of the pseudomonad and a final concentration of nitrate of 0.13%. Optionally, a buffering amount of monoammonium phosphate was added at a ratio between about 1:1 to 125:1 sodium nitrate to monoammonium phosphate to enhance the preservation of the pseudomonad at 25° C.
Pseudomonas putida NRRL-B-18118 was stabilized in a liquid according as described in Example 1. The stabilized pseudomonads were then mixed with the ethoxylated surfactant NEODOL 91-6 at the appropriate amount to arrive at the appropriate fixed concentration. The solutions were incubated at 25° C. At various times, aliquots were removed and plated on agar plates and the colony forming units (CFU) per mL were recorded.

[2] = tested on: Pseudomonas putida NRRL-B-18118; assay: Oxygen uptake (BOD analyzer) with NEODOL 91-6 and 1% motor oil; assay type: cell-based; design: oxygen uptake: unit not given here; conditions: for oxygen uptake: 25° C.
Experimental: The assay measured oxygen uptake of Pseudomonas putida NRRL-B-18118 in the presence 0.001 to 1.0% NEODOL 91-6 and 1% motor oil in a minimal media broth. The pseudomonads were suspended at 10^8 CFU/mL and placed in a HATCH Model 2173B biological oxygen demand (BOD) analyzer at 25° C. […] was measured over a 48 hour time period.

(C9-C11) alkyl alcohol ethoxylate (polyethyleneglycol-(C9-C11)-ether) [NEODOL 91-6]
CFU/mL (time) ([1]; 0.5% NEODOL 91-6, 25° C., 1 Month): 5.0 × 10^7 CFU/mL
CFU/mL (time) ([1]; 0.5% NEODOL 91-6, 25° C., 3 Months): 1.0 × 10^7 CFU/mL
CFU/mL (time) ([1]; 0.5% NEODOL 91-6, 25° C., 5 Months): 3.0 × 10^7 CFU/mL
CFU/mL (time) ([1]; 0.5% NEODOL 91-6, 25° C., 7 Months): 6.0 × 10^6 CFU/mL
CFU/mL (time) ([1]; 0.5% NEODOL 91-6, 25° C., Zero (h)): 1.4 × 10^8 CFU/mL
CFU/mL (time) ([1]; 1.0% NEODOL 91-6, 25° C., 1 Month): 5.0 × 10^7 CFU/mL
CFU/mL (time) ([1]; 1.0% NEODOL 91-6, 25° C., 3 Months): 1.5 × 10^7 CFU/mL
CFU/mL (time) ([1]; 1.0% NEODOL 91-6, 25° C., 5 Months): 1.0 × 10^7 CFU/mL
CFU/mL (time) ([1]; 1.0% NEODOL 91-6, 25° C., 7 Months): 1.0 × 10^6 CFU/mL
CFU/mL (time) ([1]; 1.0% NEODOL 91-6, 25° C., Zero (h)): 1.4 × 10^8 CFU/mL
CFU/mL (time) ([1]; 5.0% NEODOL 91-6, 25° C., 1 Month): 5.0 × 10^7 CFU/mL
CFU/mL (time) ([1]; 5.0% NEODOL 91-6, 25° C., 3 Months): 1.4 × 10^7 CFU/mL
CFU/mL (time) ([1]; 5.0% NEODOL 91-6, 25° C., 5 Months): 1.0 × 10^7 CFU/mL
CFU/mL (time) ([1]; 5.0% NEODOL 91-6, 25° C., 7 Months): 1.0 × 10^6 CFU/mL
CFU/mL (time) ([1]; 5.0% NEODOL 91-6, 25° C., Zero (h)): 1.4 × 10^8 CFU/mL
effect on shelf-life of Pseudomonas putida NRRL-B-18118 ([1]; NEODOL 91-6 0.5 to 5% in the storage solution): not adversely affected
decrease in viability of the pseudomonads ([1]; stored in the presence of NEODOL 91-6, over seven months): two log decrease
oxygen uptake ([2]; 0.001% NEODOL 91-6, 1% motor oil, 0 h): 0
oxygen uptake ([2]; 0.001% NEODOL 91-6, 1% motor oil, 12 h): 40
oxygen uptake ([2]; 0.001% NEODOL 91-6, 1% motor oil, 21 h): 100
oxygen uptake ([2]; 0.001% NEODOL 91-6, 1% motor oil, 28 h): 140
oxygen uptake ([2]; 0.001% NEODOL 91-6, 1% motor oil, 31 h): 160
oxygen uptake ([2]; 0.001% NEODOL 91-6, 1% motor oil, 48 h): 200
oxygen uptake ([2]; 0.01% NEODOL 91-6, 1% motor oil, 0 h): 0
oxygen uptake ([2]; 0.01% NEODOL 91-6, 1% motor oil, 12 h): 40
oxygen uptake ([2]; 0.01% NEODOL 91-6, 1% motor oil, 21 h): 40
oxygen uptake ([2]; 0.01% NEODOL 91-6, 1% motor oil, 28 h): 60
oxygen uptake ([2]; 0.01% NEODOL 91-6, 1% motor oil, 31 h): 60
oxygen uptake ([2]; 0.01% NEODOL 91-6, 1% motor oil, 48 h): 110
oxygen uptake ([2]; 0.1% NEODOL 91-6, 1% motor oil, 0 h): 0
oxygen uptake ([2]; 0.1% NEODOL 91-6, 1% motor oil, 12 h): 20
oxygen uptake ([2]; 0.1% NEODOL 91-6, 1% motor oil, 21 h): 40
oxygen uptake ([2]; 0.1% NEODOL 91-6, 1% motor oil, 28 h): 60
oxygen uptake ([2]; 0.1% NEODOL 91-6, 1% motor oil, 31 h): 80
oxygen uptake ([2]; 0.1% NEODOL 91-6, 1% motor oil, 48 h): 110
oxygen uptake ([2]; 0.5% NEODOL 91-6, 1% motor oil, 0 h): 0
oxygen uptake ([2]; 0.5% NEODOL 91-6, 1% motor oil, 12 h): 20
oxygen uptake ([2]; 0.5% NEODOL 91-6, 1% motor oil, 21 h): 40
oxygen uptake ([2]; 0.5% NEODOL 91-6, 1% motor oil, 28 h): 50
oxygen uptake ([2]; 0.5% NEODOL 91-6, 1% motor oil, 31 h): 70
oxygen uptake ([2]; 0.5% NEODOL 91-6, 1% motor oil, 48 h): 90
oxygen uptake ([2]; 1.0% NEODOL 91-6, 1% motor oil, 0 h): 0
oxygen uptake ([2]; 1.0% NEODOL 91-6, 1% motor oil, 12 h): 10
oxygen uptake ([2]; 1.0% NEODOL 91-6, 1% motor oil, 21 h): 20
oxygen uptake ([2]; 1.0% NEODOL 91-6, 1% motor oil, 28 h): 30
oxygen uptake ([2]; 1.0% NEODOL 91-6, 1% motor oil, 31 h): 50
oxygen uptake ([2]; 1.0% NEODOL 91-6, 1% motor oil, 48 h): 80
function of the pseudomonads in the presence of NEODOL 91-6 ([2]; tested NEODOL 91-6 concentrations, 48 hour time period): remained functional
